Assay [1] concerns IL-6. Nature of the assay: IL-6 inhibition in LPS-stimulated human peripheral blood mononuclear cells (HTRF). The conditions noted are these: Homo sapiens, PBMC; for EC50: 22 h; for inhibition at 10 µM: read-out: percentage in parentheses after EC50 >10.
The target in assay [2] is GSK3β kinase (Homo sapiens, UniProt P49841). Briefly: GSK3β kinase activity (Ser/Thr 09 peptide Z-lyte FRET assay). The settings on record: recombinant kinase, 46 μM ATP, one hour at room temperature; read-out: EC50. Type of assay: biochemical.
The subject of assay [3] is α-smooth muscle actin (aSMA) positive LL29 cells. Briefly: Inhibition of the fibrotic process: αSMA staining in TGF-β1 treated LL29 fibroblasts from IPF patients. The conditions noted are these: Homo sapiens, Fibroblast; for EC50: 96 h; for inhibition at 10 µM: read-out: percentage in parentheses after EC50 >10.
In assay [4] the test system is Tau phosphorylation at Ser396 (pSer396). Briefly: Tau phosphorylation at Ser396 (pSer396) in SH-SY5Y cells, ELISA / western blot.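 Also: decrease in pSer396 Tau measured in lysates of treated cells by colorimetric ELISA or chemiluminescent western blot, same pSer396 antibody for both.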 Format: cell-based, human. The conditions noted are these: Homo sapiens; SH-SY5Y cells, overnight (16-18 h); read-out: pSer396 Tau EC50.
Experimental: Two days before treatment, cells were seeded onto 96 well plates at 5×10^4 cells/well.
The above synthesized compounds were screened using the cell assay procedure to assess decrease Tau phosphorylation at Ser396 (pSer396) described below.
Cells were lysed with RIPA buffer complemented with phosphatase and protease inhibitors then lysates were spun down at 12,000 g for 10 min to remove any cellular debris.
The subject of assay [5] is SW480 colon carcinoma cells. Nature of the assay: Cell viability assay (CellTiter-Glo). The conditions noted are these: Homo sapiens; for EC50: SW480, 96 h; for inhibition at 10 µM: SW480, read-out: percent inhibition at 10 μM.
In assay [6] the test system is secreted cytokines TNFα, IL-6 and KC-GRO. Briefly: Secreted cytokines in Lipopolysaccharide-stimulated BV-2 cells (Table 9 does not say which cytokine). The conditions noted are these: Mus musculus, BV-2, 5 h; read-out: EC50. Format: cell-based, mouse.
Experimental: BV-2 cells (mouse microglial cells) were cultured in 1:1 DMEM medium supplemented with 10% FBS, and 1% penicillin/streptomycin.
BV-2 cells are plated at 35,000 cells/well in a volume of 100 μl for at least 4 hours before compounds are added. […] Compounds were added to cells overnight. […] Supernatant is removed and saved for further cytokine detection. The original plates with seeded cells were tested for cytotoxicity by measure of adenosine triphosphate (ATP) release by adding CellTiter-Glo® diluted 1:4 in distilled water (G7573, Promega) and transferring lysed cells to a completely black 96-well plate to be read with the Cytation3. Supernatant was then diluted 1:2 with a diluent from V-PLEX cytokine Kit and directly tested for the secreted cytokines TNFα, IL-6 and KC-GRO using electrochemiluminescence (Meso Scale Discovery). The standard curve for each cytokine was used to convert the electrochemiluminescent signal into pg of protein per mL.
Assay [7] deals with Wnt-responsive Sp5-Luc reporter in SW480 colon carcinoma cells. Nature of the assay: Screening assay for Wnt activity (Sp5-Luc reporter gene assay). The conditions noted are these: Homo sapiens; for EC50: SW480; for inhibition at 10 µM: SW480, read-out: percent inhibition at 10 μM.
The target of assay [8] is DYRK1A kinase (Homo sapiens, UniProt Q13627). Briefly: DYRK1A kinase activity (Ser/Thr 18 peptide Z-lyte FRET assay).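 Also: kinase activity read as coumarin/fluorescein emission ratio after development step, with unphosphorylated and phosphorylated peptide forms setting 0% and 100% controls, values from dose-response curves.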 Type of assay: biochemical. The settings on record: recombinant DYRK1A, 30 μM ATP, one hour at room temperature.

Sequence of GSK3β kinase (P49841 whole entry): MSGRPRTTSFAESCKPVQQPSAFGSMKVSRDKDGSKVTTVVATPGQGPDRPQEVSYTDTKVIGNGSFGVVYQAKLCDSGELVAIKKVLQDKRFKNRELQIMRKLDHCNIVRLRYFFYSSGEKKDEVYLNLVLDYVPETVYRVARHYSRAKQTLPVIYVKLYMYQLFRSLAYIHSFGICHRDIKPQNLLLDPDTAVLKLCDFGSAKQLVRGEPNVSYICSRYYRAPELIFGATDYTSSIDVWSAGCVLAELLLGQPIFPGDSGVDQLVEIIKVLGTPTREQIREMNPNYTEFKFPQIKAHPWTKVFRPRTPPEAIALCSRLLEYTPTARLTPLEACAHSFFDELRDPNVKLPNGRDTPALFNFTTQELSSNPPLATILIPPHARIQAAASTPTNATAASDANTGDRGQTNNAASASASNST

In the case of `CN(C)[C@H]1CC[C@H](C(=O)Nc2cc3cc(-c4cncs4)cnc3cn2)CC1` [Compound 4618], the 50% effective concentration (EC50) in assay [1] was > 10 µM; in assay [2] it was 3.82 µM; in assay [3], 4.81 µM; in assay [4] it was 1.05 µM; in assay [5], > 10 µM; in assay [6], 0.108 µM. Moreover, the EC50 in assay [7] was > 10 µM; in assay [8], 0.018 µM. In addition, the inhibition at 10 µM was 6.3% in assay [1], 36.1% in assay [5] and 14.6% in assay [7].
As to `O=C(Nc1ncc2ccc(-c3cccnc3)cc2n1)C1CC1` [Compound 1670, N-(7-(Pyridin-3-yl)quinazolin-2-yl)cyclopropanecarboxamide], the half-maximal effective concentration (EC50) was > 10 µM in assay [1]; 0.12 µM in assay [2]; 4.85 µM in assay [3]; 0.604 µM in assay [4]; 9.05 µM in assay [5]; 2.9 µM in assay [6]. Further, the figures for the EC50 in assay [7] and in assay [8] were 3.71 µM and 0.006 µM, respectively. Besides, the inhibition at 10 µM in assay [1] was found to be 7.2%.
As to `CC(C)CN1CCC(C(=O)Nc2cc3cc(-c4cnn(C)c4)cnc3cn2)CC1` [Compound 2736, 1-Isobutyl-N-(3-(1-methyl-1H-pyrazol-4-yl)-1,7-naphthyridin-6-yl) piperidine-4-carboxamide], the EC50 in assay [1] is > 10 µM; in assay [2], 3.73 µM; in assay [3] it was > 10 µM; in assay [4], > 10 µM; in assay [5], > 10 µM; in assay [6], 0.109 µM. Also, the concentration for a half-maximal effect (EC50) in assay [7] is > 10 µM; in assay [8] it was 0.03 µM. Also, the inhibition at 10 µM in assay [1] turned out to be 0%; in assay [3], 17%; in assay [5], 10.7%; in assay [7], 19.3%.
`Cn1cc(-c2ccc3cnc(NC(=O)CCc4ccccc4)cc3n2)cn1` [Compound 194, N-(2-(1-Methyl-1H-pyrazol-4-yl)-1,6-naphthyridin-7-yl)-3-phenylpropanamide]: the EC50 was 8.94 µM in assay [1]; 0.017 µM in assay [2]; 0.935 µM in assay [3]; 3 µM in assay [4]; 7.62 µM in assay [5]; 0.819 µM in assay [6]. For the same compound, the 50% effective concentration (EC50) was 0.596 µM in assay [7] and 0.023 µM in assay [8].
In the case of `Cn1cc(-c2ccc3cnc(NC(=O)C4CC4)cc3n2)cn1` [Compound 2, N-(2-(1-Methyl-1H-pyrazol-4-yl)-1,6-naphthyridin-7-yl) cyclopropanecarboxamide], the 50% effective concentration (EC50) in assay [1] was 3.16 µM; in assay [2], 0.02 µM; in assay [3] it was 0.677 µM; in assay [4], 0.396 µM; in assay [5], 2.47 µM; in assay [6] it was 1.7 µM. Further, the values for the EC50 in assay [7] and in assay [8] were 2.94 µM and 0.018 µM, respectively.
In the case of `Cn1cc(-c2ccc3cnc(NC(=O)CC4CNCCO4)nc3c2)cn1` (stereo not shown) [Compound 994, N-(7-(1-Methyl-1H-pyrazol-4-yl)quinazolin-2-yl)-2-(morpholin-2-yl)acetamide], the EC50 in assay [1] was 8.31 µM; in assay [2] it was 0.776 µM; in assay [3] it was > 10 µM; in assay [4] it was > 10 µM; in assay [5], > 10 µM; in assay [6], 1.3 µM. Further, the half-maximal effective concentration (EC50) was > 10 µM in assay [7] and 0.015 µM in assay [8]. In addition, the inhibition at 10 µM in assay [3] was determined as 0%; in assay [5], 24.8%; in assay [7], 11.5%.
Take `Cn1cncc1-c1cnc2cnc(NC(=O)C3CCC(F)(F)CC3)cc2c1` [Compound 3120, 4,4-Difluoro-N-(3-(1-methyl-1H-imidazol-5-yl)-1,7-naphthyridin-6-yl) cyclohexane-1-carboxamide]: the EC50 in assay [1] was > 10 µM; in assay [2], 1.33 µM; in assay [3], > 10 µM; in assay [4] it was 2.43 µM; in assay [5], > 10 µM; in assay [6], 0.649 µM. The EC50 in assay [7] was > 10 µM; in assay [8] it was 0.009 µM. In addition, the inhibition at 10 µM is 7.4% in assay [1], 27% in assay [3], 21.4% in assay [5] and 16.2% in assay [7].
Regarding `CO[C@H]1CC[C@@H](C(=O)Nc2ncc3ccc(-c4nnc(C)s4)cc3n2)CC1` [Compound 1612, cis-4-Methoxy-N-(7-(5-methyl-1,3,4-thiadiazol-2-yl)quinazolin-2-yl)cyclohexane-1-carboxamide], the concentration giving a half-maximal response (EC50) was > 10 µM in assay [1]; 0.049 µM in assay [2]; > 10 µM in assay [3]; 1.1 µM in assay [4]; > 10 µM in assay [5]; 2.2 µM in assay [6]. Also, the figures for the EC50 in assay [7] and in assay [8] were > 10 µM and 0.021 µM, respectively. Besides, the inhibition at 10 µM was determined as 6.3% in assay [1], 42% in assay [3], 23.8% in assay [5] and 37.9% in assay [7].
For the compound `Cn1cc(-c2ccc3cnc(NC(=O)[C@H]4CCCN4)cc3n2)cn1` [Compound 62, (R)—N-(2-(1-Methyl-1H-pyrazol-4-yl)-1,6-naphthyridin-7-yl)pyrrolidine-2-carboxamide], the concentration giving a half-maximal response (EC50) in assay [1] is 4.83 µM; in assay [2], 0.009 µM; in assay [3], > 10 µM; in assay [4], 0.699 µM; in assay [5] it was > 10 µM; in assay [6] it was 0.557 µM. Moreover, the EC50 is > 10 µM in assay [7] and 0.056 µM in assay [8]. Further, the inhibition at 10 µM is 8.3% in assay [3], 38.3% in assay [5] and 43.1% in assay [7].
As for `CC(C)Oc1ccc(C(=O)Nc2cc3nc(-c4cnc5n4CCNC5)ccc3cn2)cc1` [Compound 523, 4-Isopropoxy-N-(2-(5,6,7,8-tetrahydroimidazo[1,2-a]pyrazin-3-yl)-1,6-naphthyridin-7-yl)benzamide], the half-maximal effective concentration (EC50) was > 10 µM in assay [1]; 0.362 µM in assay [2]; 1.63 µM in assay [3]; 3.94 µM in assay [4]; 0.814 µM in assay [5]; 0.799 µM in assay [6]. Besides, the EC50 in assay [7] was found to be 0.53 µM; in assay [8] it was 0.004 µM. In addition, the inhibition at 10 µM in assay [1] was 3.7%.
For `Cc1ncc(-c2ccc3cnc(NC(=O)[C@H]4C[C@H](N5CCOCC5)C4)cc3n2)o1` [Compound 556, trans-N-(2-(2-Methyloxazol-5-yl)-1,6-naphthyridin-7-yl)-3-morpholinocyclobutane-1-carboxamide], the EC50 in assay [1] was > 10 µM; in assay [2], 0.086 µM; in assay [3], > 10 µM; in assay [4], 0.487 µM; in assay [5], > 10 µM; in assay [6], 2.2 µM. In addition, the EC50 is > 10 µM in assay [7] and 0.054 µM in assay [8]. The inhibition at 10 µM in assay [1] was determined as 4.9%; in assay [3], 27.6%; in assay [5], 29.4%; in assay [7], 41.3%.

Source of the values: patent US10703748B2, “Diazanaphthalen-3-yl carboxamides and preparation and use thereof” (Samumed, LLC, priority 2017, dated 2020).
